Laboratory results from patent publication US20070224297A1, “Method for increasing content of physiologically active substance in ginseng” (priority 2006, published 2007).

Test: DPPH antioxidant (radical scavenging) test
Conditions: 1 mM; absorbance relative to control, 517 nm, 30 minutes
Protocol: In order to measure the antioxidant effect of the ginseng extract prepared by the method of the present invention, a DPPH (1,1-diphenyl-2-picrylhydrazyl) method was used. DPPH is a color-developed radical, and can be used to directly confirm the radical removing ability of the same. […] An absorbance was measured at 517 nm to determine the amount of the remaining DPPH. The blank of this test is distilled water or a solvent, and a control is an experimental group composed only of DPPH and distilled water without the sample. The antioxidant ability (Radical Scavenging activity: RSA) was determined by the following equation 1, compared with the absorbances of the controls, and the lowered ratios are shown in Table 2. RSA (%)=[Absorbance of Hydroxylate/Absorbance of Control]×100 [Equation 1]

O=C1O[C@H]([C@@H](O)CO)C(O)=C1O [Vitamin C]
RSA (%): 35%
